Data as given in patent publication EP0583821A1, “Atriopeptins, guanylate cyclase activators, and phosphodiesterase inhibitors as treatment for glaucoma, hydrocephalus and cerebral edema (cranial fluid volume dysfunction)” (THE GENERAL HOSPITAL CORPORATION, priority 1987, dated 1988).

How the values were obtained:
guanylate cyclase [1] = target: T1, guanylate cyclase (Oryctolagus cuniculus, UniProt G1TXB5); assay: rANP activation of guanylate cyclase in membrane fractions of whole choroid plexus; type: biochemical, rabbit; set-up: tissues were homogenized (10 mg wet weight per milliliter); from tissue; host or cells: rabbit cerebral microvessels, choroid plexus, kidney, ciliary process, pia-arachnoid, cerebellum; 100,000 g P1 pellet
T1 sequence (G1TXB5 28-1056): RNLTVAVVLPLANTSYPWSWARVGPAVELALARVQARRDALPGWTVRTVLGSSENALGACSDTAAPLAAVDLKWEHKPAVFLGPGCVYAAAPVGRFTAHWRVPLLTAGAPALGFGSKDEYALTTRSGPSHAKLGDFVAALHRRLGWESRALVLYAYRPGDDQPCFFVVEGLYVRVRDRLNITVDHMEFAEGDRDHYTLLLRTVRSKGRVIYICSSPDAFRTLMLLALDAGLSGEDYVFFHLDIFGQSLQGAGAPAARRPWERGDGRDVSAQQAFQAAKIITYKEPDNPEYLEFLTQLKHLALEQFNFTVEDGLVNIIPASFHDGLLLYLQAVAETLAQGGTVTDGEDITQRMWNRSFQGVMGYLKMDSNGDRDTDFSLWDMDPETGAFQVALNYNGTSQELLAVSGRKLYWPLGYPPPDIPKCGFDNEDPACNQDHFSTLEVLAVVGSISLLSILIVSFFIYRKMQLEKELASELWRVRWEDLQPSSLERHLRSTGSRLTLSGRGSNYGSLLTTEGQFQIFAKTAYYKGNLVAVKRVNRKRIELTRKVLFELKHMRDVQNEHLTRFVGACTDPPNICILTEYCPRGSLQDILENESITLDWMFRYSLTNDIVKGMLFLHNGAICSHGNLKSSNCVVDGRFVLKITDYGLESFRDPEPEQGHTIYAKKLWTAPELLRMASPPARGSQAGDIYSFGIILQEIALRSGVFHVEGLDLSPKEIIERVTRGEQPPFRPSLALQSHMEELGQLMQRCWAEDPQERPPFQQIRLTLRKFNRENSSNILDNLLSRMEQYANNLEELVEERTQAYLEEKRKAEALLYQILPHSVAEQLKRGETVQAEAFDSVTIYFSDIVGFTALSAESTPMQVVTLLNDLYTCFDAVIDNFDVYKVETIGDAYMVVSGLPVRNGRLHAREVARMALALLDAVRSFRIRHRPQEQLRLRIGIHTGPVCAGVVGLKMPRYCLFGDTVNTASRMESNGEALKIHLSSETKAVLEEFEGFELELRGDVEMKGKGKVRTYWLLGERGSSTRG
Procedure: (§1) The effect of rANP on membrane-bound guanylate cyclase and adenylate cyclase activity in various brain-barrier tissues and tissue fractions from rabbit was compared with its activity in cerebrum and cerebellum. Guanylate cyclase was measured as the rate of cyclic GMP formation by modifications of the technique of Waldman et al., supra, incorporated herein by reference. Briefly, tissues were homogenized (10 mg wet weight per milliliter) in 50 mM tris-HCl, pH 8.0, 1 mM EDTA, 1 mM dithiothreitol, and 250 mM sucrose and centrifuged at 100,000g to obtain a P1 pellet. Reaction tubes contained (in 0.3 ml), 50 mM tris, pH 7.6, 6 mM MnCl₂, 0.5 mM 3-isobutyl, 1-methylxanthine (IBMX), 10 mM theophylline, 3 mM GTP, hormone (in 0.03 ml containing 2.5 mM ascorbic acid and 0.1% bovine serum albumin), and 0.06 ml of P1 fraction (40 to 60 ug of protein). The reaction (4 minutes at 30°C) was started by addition of GTP and terminated by addition of 0.3 ml of 150 mM sodium acetate (pH 4.0) and boiling for 3 minutes. Cyclic GMP formed was subsequently measured by radioimmunoassay as described in example 6, infra. Under these conditions, guanylate cyclase activity was linear with time and tissue concentration. Adenylate cyclase activity in P1 fractions was measured according to the method described by Nathanson, et al., Science; 204:843 (1979); Mol. Pharmacol. 18:199 (1980), see Figure 1C . […] Neurosci. Abstr., 10, 899 (1984); Nathanson, et al., Soc. Neurosci. Abstr., 12, 1257 (1986), incorporated herein by reference, but with a lower concentration (0.025%) of trypsin and a rotating tissue tumbler which allowed cleaner fractionation of epithelial cells from erythrocytes and vascular components.
Adenylate cyclase activity could be stimulated by isoproterenol through β-adrenergic receptors known to be present in this tissue. Values shown are the mean ± range for duplicate enzyme determinations, each assayed for cyclic AMP or cyclic GMP in triplicate. […]

guanylate cyclase [2] = target: T1, guanylate cyclase; assay: rANP activation of membrane-bound guanylate cyclase in purified cerebral microvessels; type: biochemical; set-up: tissues were homogenized (10 mg wet weight per milliliter); from tissue; host or cells: rabbit cerebral microvessels, choroid plexus, kidney, ciliary process, pia-arachnoid, cerebellum; 100,000 g P1 pellet; conditions: purified rabbit cerebral microvessels, Fig. 1a
Procedure: as §1, with “Abstr., 10, 899 (1984); Nathanson, et al., Soc. Neurosci. Abstr., 12, 1257 (1986), incorporated herein by reference, but with a lower concentration (0.025%) of trypsin and a rotating tissue tumbler which allowed cleaner fractionation of epithelial cells from erythrocytes and vascular components.” left out

guanylate cyclase [3] = assay: Guanylate cyclase in membrane fractions of cerebral cortex; type: biochemical; conditions: rabbit or pig cerebral cortex membrane fractions
Procedure: as §1, with “Abstr., 10, 899 (1984); Nathanson, et al., Soc. Neurosci. Abstr., 12, 1257 (1986), incorporated herein by reference, but with a lower concentration (0.025%) of trypsin and a rotating tissue tumbler which allowed cleaner fractionation of epithelial cells from erythrocytes and vascular components.” left out

guanylate cyclase [4] = assay: Ciliary process guanylate cyclase activity (Tables 2 and 3); type: biochemical
guanylate cyclase [5] = target: T1, guanylate cyclase; assay: Guanylate cyclase in membrane fractions of cerebellum; type: biochemical, rabbit; set-up: tissues were homogenized (10 mg wet weight per milliliter); from tissue; host or cells: rabbit cerebral microvessels, choroid plexus, kidney, ciliary process, pia-arachnoid, cerebellum; 100,000 g P1 pellet
Procedure: as §1, with “Abstr., 10, 899 (1984); Nathanson, et al., Soc. Neurosci. Abstr., 12, 1257 (1986), incorporated herein by reference, but with a lower concentration (0.025%) of trypsin and a rotating tissue tumbler which allowed cleaner fractionation of epithelial cells from erythrocytes and vascular components.” left out

Row | Substance | Vmax for stimulation of basal activity (guanylate cyclase [1]; choroid plexus, SEM, N = 5) | Ka for activation of the enzyme (guanylate cyclase [1]; whole choroid plexus, five separate experiments, SEM, 4 min) | maximum velocity of enzyme activity (Vmax) (guanylate cyclase [2]) | stimulation of guanylate cyclase activity (guanylate cyclase [3]) | CILIARY PROCESS GUANYLATE CYCLASE ACTIVITY (Percent Increase) (guanylate cyclase [4]; Table 2, 10⁻⁶M) | CILIARY PROCESS GUANYLATE CYCLASE ACTIVITY (Percent Increase) (guanylate cyclase [4]; Table 3, concentration not given) | stimulation of guanylate cyclase (guanylate cyclase [5]) | stimulation of guanylate cyclase (guanylate cyclase [1]; choroid plexus)
1 | Ser-Leu-Arg-Arg-atriopeptin III (APIII) [rANP 1-28] | 58% ± 16% | 9.8 ± 5.1 nM | 215 % of control | no stimulation | 60 ± 27 Percent Increase | 74 Percent Increase | moderate amount of stimulation | –
2 | rANP 13-28 (DRIGAQSGLGCNSFRY; Atrial natriuretic peptide; UniProt P01161 135-150, looked up, fragment) | – | – | – | – | – | – | – | almost no stimulation
